Laboratory results as given in patent publication US12365696B2, “Small-molecule focal adhesion kinase (FAK) inhibitors” (DANA-FARBER CANCER INSTITUTE, INC., priority 2019, dated 2025).

What was measured:
Assay in all cases: KINOMEscan
Format in all cases: binding
GSK3A = GSK3A (Homo sapiens (Human), UniProt P49840); conditions: 10000 nM, read-out: Percent Control
MKNK2 = MKNK2 (Homo sapiens (Human), UniProt Q9HBH9); conditions: MKNK2, 10000 nM; read-out: Percent Control
SIK2 = SIK2 (Homo sapiens (Human), UniProt Q9H0K1); conditions: SIK2, 10000 nM; read-out: Percent Control
CLK2 = CLK2 (Homo sapiens (Human), UniProt P49760); conditions: CLK2, 10000 nM; read-out: Percent Control
HPK1 = HPK1 (Homo sapiens (Human), UniProt Q92918); conditions: HPK1, 10000 nM; read-out: Percent Control
PIP5K2C = PIP5K2C (Homo sapiens (Human), UniProt Q8TBX8); conditions: 10000 nM, read-out: Percent Control
ACVR1 = ACVR1 (Homo sapiens (Human), UniProt Q04771); conditions: ACVR1, 10000 nM; read-out: Percent Control
BUB1 = BUB1 (Homo sapiens (Human), UniProt O43683); conditions: BUB1, 10000 nM; read-out: Percent Control
Sequence of BUB1 (O43683 whole entry): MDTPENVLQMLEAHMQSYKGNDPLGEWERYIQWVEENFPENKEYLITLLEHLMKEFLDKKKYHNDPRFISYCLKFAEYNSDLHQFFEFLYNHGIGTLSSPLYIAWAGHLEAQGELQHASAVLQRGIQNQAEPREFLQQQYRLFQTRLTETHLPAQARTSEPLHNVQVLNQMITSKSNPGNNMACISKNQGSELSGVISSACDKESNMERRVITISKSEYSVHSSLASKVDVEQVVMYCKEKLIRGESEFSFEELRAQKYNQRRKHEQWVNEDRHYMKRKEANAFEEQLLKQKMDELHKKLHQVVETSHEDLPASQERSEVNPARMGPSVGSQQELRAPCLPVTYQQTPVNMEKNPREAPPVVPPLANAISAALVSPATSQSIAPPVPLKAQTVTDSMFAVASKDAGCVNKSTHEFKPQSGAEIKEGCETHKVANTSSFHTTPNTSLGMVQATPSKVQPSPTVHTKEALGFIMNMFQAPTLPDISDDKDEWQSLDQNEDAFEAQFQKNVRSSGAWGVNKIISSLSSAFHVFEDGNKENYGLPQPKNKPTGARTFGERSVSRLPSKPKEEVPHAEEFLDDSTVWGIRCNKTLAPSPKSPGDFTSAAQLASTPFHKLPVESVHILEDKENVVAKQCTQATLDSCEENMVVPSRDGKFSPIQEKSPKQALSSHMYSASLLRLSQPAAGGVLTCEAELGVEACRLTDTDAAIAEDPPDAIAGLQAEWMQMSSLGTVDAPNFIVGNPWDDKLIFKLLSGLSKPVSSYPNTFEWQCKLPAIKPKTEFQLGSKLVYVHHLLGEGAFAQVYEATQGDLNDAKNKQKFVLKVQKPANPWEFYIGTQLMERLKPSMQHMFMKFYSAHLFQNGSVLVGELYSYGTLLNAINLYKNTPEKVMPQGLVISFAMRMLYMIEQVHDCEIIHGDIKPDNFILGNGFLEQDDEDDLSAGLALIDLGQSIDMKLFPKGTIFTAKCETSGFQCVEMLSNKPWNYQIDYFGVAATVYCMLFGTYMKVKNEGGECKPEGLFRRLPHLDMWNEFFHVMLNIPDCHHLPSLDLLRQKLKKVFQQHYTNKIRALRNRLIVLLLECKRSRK

[1] = target: TYK2(JH2domain-pseudokinase) (Homo sapiens (Human), UniProt P29597); conditions: 10000 nM, read-out: Percent Control
MST3 = MST3 (Homo sapiens (Human), UniProt Q9Y6E0); conditions: MST3, 10000 nM; read-out: Percent Control
Sequence of MST3 (Q9Y6E0 whole entry): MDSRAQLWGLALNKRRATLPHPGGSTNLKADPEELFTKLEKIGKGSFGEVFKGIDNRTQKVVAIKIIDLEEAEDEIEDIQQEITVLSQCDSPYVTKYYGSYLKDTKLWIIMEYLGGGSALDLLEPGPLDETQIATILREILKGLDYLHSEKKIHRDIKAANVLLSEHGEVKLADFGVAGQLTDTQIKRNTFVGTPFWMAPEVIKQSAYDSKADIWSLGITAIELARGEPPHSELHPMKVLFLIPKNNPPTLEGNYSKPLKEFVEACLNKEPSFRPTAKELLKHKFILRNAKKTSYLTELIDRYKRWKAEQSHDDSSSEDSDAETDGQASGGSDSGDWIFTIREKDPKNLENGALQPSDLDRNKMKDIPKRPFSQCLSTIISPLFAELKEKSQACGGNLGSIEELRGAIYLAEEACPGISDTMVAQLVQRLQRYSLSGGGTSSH

FLT3(D835Y) = FLT3(D835Y) (Homo sapiens (Human), UniProt P36888, D835Y); conditions: 10000 nM, read-out: Percent Control
FLT3(ITD, F691L) = conditions: 10000 nM
[2] = target: TYK2(JH1domain-catalytic) (Homo sapiens (Human), UniProt P29597); conditions: 10000 nM, read-out: Percent Control
Sequence of TYK2(JH1domain-catalytic) (P29597 897-1176): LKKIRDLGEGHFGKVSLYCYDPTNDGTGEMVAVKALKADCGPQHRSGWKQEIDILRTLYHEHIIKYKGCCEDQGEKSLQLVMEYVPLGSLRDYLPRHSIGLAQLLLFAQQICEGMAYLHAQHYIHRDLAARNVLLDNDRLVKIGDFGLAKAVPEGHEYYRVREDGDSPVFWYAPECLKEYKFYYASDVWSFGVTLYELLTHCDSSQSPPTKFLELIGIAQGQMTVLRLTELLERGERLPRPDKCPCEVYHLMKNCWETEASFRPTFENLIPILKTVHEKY

TRKA = TRKA (Homo sapiens (Human), UniProt P04629); conditions: 10000 nM, read-out: Percent Control
CSNK1A1 = CSNK1A1 (Homo sapiens (Human), UniProt P48729); conditions: CSNK1A1, 10000 nM; read-out: Percent Control
PFTAIRE2 = PFTAIRE2 (Homo sapiens (Human), UniProt Q96Q40); conditions: PFTAIRE2, 10000 nM; read-out: Percent Control
Sequence of PFTAIRE2 (Q96Q40 whole entry): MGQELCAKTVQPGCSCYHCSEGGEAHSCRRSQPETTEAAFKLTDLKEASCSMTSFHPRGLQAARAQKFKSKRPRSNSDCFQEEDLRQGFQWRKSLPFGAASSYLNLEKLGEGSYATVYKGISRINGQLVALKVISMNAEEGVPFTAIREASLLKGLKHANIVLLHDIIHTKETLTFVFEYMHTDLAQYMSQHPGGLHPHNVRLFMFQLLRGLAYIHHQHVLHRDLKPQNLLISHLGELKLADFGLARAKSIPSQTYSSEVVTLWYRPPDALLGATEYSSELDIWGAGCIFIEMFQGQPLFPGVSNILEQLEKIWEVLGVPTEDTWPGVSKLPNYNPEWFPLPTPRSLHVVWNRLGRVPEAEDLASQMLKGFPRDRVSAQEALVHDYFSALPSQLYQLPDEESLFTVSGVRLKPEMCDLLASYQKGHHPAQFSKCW

ULK2 = ULK2 (Homo sapiens (Human), UniProt Q8IYT8); conditions: ULK2, 10000 nM; read-out: Percent Control
Sequence of ULK2 (Q8IYT8 whole entry): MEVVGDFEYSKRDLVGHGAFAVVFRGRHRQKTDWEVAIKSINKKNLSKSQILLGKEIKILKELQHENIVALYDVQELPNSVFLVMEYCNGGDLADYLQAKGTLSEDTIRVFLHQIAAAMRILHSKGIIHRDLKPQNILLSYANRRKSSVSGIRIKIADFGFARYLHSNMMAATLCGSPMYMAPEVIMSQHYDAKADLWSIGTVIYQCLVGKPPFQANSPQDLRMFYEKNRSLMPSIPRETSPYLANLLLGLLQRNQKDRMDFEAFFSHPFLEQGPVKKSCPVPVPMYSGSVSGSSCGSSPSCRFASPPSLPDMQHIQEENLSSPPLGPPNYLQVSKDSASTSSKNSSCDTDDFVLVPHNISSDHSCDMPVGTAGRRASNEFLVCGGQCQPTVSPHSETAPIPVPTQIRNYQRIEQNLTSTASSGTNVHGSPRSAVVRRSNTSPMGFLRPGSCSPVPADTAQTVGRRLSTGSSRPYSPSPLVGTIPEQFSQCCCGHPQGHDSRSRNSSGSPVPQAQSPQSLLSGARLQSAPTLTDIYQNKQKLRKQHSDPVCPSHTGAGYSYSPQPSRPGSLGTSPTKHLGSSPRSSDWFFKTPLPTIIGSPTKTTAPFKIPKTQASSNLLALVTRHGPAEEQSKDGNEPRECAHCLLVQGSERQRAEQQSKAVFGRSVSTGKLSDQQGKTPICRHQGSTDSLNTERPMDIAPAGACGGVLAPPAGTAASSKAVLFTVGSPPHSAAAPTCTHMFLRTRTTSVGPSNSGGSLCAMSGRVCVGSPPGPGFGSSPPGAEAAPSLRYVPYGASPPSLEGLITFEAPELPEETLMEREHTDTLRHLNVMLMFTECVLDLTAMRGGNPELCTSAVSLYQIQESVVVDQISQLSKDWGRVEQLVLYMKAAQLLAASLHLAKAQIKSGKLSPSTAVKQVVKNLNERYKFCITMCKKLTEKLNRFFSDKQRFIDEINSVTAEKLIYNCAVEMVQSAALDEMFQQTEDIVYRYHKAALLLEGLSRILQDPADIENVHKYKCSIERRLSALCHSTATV

MLK2 = MLK2 (Homo sapiens (Human), UniProt Q02779); conditions: MLK2, 10000 nM; read-out: Percent Control
FGFR4 = FGFR4 (Homo sapiens (Human), UniProt P22455); conditions: FGFR4, 10000 nM; read-out: Percent Control
Sequence of FGFR4 (P22455 22-802): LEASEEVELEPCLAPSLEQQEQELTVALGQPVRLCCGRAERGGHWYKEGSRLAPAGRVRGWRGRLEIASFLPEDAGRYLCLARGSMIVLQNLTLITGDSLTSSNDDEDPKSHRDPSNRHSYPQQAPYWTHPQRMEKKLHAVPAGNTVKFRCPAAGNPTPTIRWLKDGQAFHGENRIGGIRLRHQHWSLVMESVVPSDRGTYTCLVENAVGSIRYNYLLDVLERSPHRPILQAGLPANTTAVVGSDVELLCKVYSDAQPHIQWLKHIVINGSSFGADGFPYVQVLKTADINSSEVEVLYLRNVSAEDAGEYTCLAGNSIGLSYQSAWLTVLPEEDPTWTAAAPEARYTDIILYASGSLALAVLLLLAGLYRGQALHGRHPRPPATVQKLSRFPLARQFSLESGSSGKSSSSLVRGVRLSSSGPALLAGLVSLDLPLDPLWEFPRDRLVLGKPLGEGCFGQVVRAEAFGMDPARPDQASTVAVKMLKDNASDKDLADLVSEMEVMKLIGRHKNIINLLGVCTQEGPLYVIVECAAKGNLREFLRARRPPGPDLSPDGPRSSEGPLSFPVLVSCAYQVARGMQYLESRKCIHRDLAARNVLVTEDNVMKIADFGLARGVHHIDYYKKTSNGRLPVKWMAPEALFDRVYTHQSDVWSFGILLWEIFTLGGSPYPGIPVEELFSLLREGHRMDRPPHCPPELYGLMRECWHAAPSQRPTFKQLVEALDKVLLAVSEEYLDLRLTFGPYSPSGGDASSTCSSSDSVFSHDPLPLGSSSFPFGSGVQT

MAPKAPK2 = MAPKAPK2 (Homo sapiens (Human), UniProt P49137); conditions: MAPKAPK2, 10000 nM; read-out: Percent Control
[3] = target: ABL1(H396P)-phosphorylated (Homo sapiens (Human), UniProt P00519, H396P); conditions: 10000 nM, read-out: Percent Control
ERK8 = ERK8 (Homo sapiens (Human), UniProt Q8TD08); conditions: ERK8, 10000 nM; read-out: Percent Control
CDK5 = CDK5 (Homo sapiens (Human), UniProt Q00535); conditions: CDK5, 10000 nM; read-out: Percent Control
MRCKA = MRCKA (Homo sapiens (Human), UniProt Q5VT25); conditions: 10000 nM, read-out: Percent Control
DAPK1 = DAPK1 (Homo sapiens (Human), UniProt P53355); conditions: DAPK1, 10000 nM; read-out: Percent Control
CSNK1G2 = CSNK1G2 (Homo sapiens (Human), UniProt P78368); conditions: CSNK1G2, 10000 nM; read-out: Percent Control
Sequence of CSNK1G2 (P78368 whole entry): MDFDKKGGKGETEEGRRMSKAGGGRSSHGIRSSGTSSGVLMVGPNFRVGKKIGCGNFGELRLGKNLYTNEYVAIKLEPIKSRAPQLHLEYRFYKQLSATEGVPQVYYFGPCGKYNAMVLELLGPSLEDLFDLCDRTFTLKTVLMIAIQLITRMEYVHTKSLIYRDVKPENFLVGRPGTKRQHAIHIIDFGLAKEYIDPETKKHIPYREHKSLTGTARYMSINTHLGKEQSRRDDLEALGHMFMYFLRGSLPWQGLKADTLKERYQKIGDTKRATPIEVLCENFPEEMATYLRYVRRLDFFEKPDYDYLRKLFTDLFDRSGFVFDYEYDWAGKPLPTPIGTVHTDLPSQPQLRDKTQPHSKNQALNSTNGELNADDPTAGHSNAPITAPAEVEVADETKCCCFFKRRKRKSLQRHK

CAMK2B = CAMK2B (Homo sapiens (Human), UniProt Q13554); conditions: 10000 nM, read-out: Percent Control
CSNK2A1 = CSNK2A1 (Homo sapiens (Human), UniProt P68400); conditions: CSNK2A1, 10000 nM; read-out: Percent Control
EGFR(L858R, T790M) = EGFR(L858R, T790M) (Homo sapiens (Human), UniProt P00533, L858R/T790M); conditions: 10000 nM, read-out: Percent Control
FLT3(D835H) = FLT3(D835H) (Homo sapiens (Human), UniProt P36888, D835H); conditions: 10000 nM, read-out: Percent Control
MYLK = MYLK (Homo sapiens (Human), UniProt Q15746); conditions: 10000 nM, read-out: Percent Control
BTK = BTK (Homo sapiens (Human), UniProt Q06187); conditions: 10000 nM, read-out: Percent Control
NEK10 = NEK10 (Homo sapiens (Human), UniProt Q6ZWH5); conditions: NEK10, 10000 nM; read-out: Percent Control

Sequence of GSK3A (P49840 whole entry): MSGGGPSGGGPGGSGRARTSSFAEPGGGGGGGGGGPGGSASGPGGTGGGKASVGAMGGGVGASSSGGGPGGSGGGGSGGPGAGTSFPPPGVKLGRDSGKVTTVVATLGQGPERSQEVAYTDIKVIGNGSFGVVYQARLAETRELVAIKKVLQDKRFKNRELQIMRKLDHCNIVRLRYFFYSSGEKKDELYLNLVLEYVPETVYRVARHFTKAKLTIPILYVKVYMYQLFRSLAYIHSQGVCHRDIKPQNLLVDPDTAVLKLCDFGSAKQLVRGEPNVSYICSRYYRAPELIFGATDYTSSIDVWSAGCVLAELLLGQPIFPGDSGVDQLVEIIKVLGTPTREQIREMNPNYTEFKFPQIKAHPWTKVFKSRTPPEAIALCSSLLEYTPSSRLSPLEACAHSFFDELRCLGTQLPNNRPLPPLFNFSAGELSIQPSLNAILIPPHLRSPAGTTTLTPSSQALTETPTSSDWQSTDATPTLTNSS

Row | Structure (SMILES) | remaining binding at 10 µM (GSK3A) [%] | remaining binding at 10 µM (MKNK2) [%] | remaining binding at 10 µM (SIK2) [%] | remaining binding at 10 µM (CLK2) [%] | remaining binding at 10 µM (HPK1) [%] | remaining binding at 10 µM (PIP5K2C) [%] | remaining binding at 10 µM (ACVR1) [%] | remaining binding at 10 µM (BUB1) [%] | remaining binding at 10 µM [1] [%] | remaining binding at 10 µM (MST3) [%] | remaining binding at 10 µM (FLT3(D835Y)) [%] | Percent Control (FLT3(ITD, F691L)) [%] | remaining binding at 10 µM [2] [%] | remaining binding at 10 µM (TRKA) [%] | remaining binding at 10 µM (CSNK1A1) [%] | remaining binding at 10 µM (PFTAIRE2) [%] | remaining binding at 10 µM (ULK2) [%] | remaining binding at 10 µM (MLK2) [%] | remaining binding at 10 µM (FGFR4) [%] | remaining binding at 10 µM (MAPKAPK2) [%] | also measured
1 | COc1cc(N2CCC(N3CCN(C)CC3)CC2)ccc1Nc1ncc2c(n1)N(C)c1sc(C)nc1C(=O)N2 [Compound 3, 6-((2-methoxy-4-(4-(4-methylpiperazin-1-yl)piperidin-1-yl)phenyl)amino)-2,4-dimethyl-4,9-dihydro-10H-pyrimido[5,4-b]thiazolo[5,4-e][1,4]diazepin-10-one] | 82 | 80 | 86 | 72 | 68 | 86 | 93 | 100 | 100 | 89 | 76 | 100 | 84 | 100 | 62 | 86 | 100 | 96 | 90 | 100 | remaining binding at 10 µM [3]: 19%; remaining binding at 10 µM (ERK8): 86%; remaining binding at 10 µM (CDK5): 71%; remaining binding at 10 µM (MRCKA): 98%; remaining binding at 10 µM (DAPK1): 72%; remaining binding at 10 µM (CSNK1G2): 81%; remaining binding at 10 µM (CAMK2B): 81%; remaining binding at 10 µM (CSNK2A1): 93%; remaining binding at 10 µM (EGFR(L858R, T790M)): 100%; remaining binding at 10 µM (FLT3(D835H)): 67%; remaining binding at 10 µM (MYLK): 53%; remaining binding at 10 µM (BTK): 100%; remaining binding at 10 µM (NEK10): 100%
2 | COc1cc(N2CCC(N3CCN(C)CC3)CC2)ccc1Nc1ncc2c(n1)N(C)c1sc(C)nc1C(=O)N2C [Compound 5, 6-((2-methoxy-4-(4-(4-methylpiperazin-1-yl)piperidin-1-yl)phenyl)amino)-2,4,9-trimethyl-4,9-dihydro-10H-pyrimido[5,4-b]thiazolo[5,4-e][1,4]diazepin-10-one] | 100 | 90 | 99 | 100 | 100 | 75 | 93 | 100 | 100 | 90 | 91 | 93 | 97 | 100 | 97 | 100 | 81 | 76 | 88 | 100 | remaining binding at 10 µM [3]: 100%; remaining binding at 10 µM (ERK8): 100%; remaining binding at 10 µM (CDK5): 98%; remaining binding at 10 µM (MRCKA): 84%; remaining binding at 10 µM (DAPK1): 84%; remaining binding at 10 µM (CSNK1G2): 80%; remaining binding at 10 µM (CAMK2B): 93%; remaining binding at 10 µM (CSNK2A1): 95%; remaining binding at 10 µM (EGFR(L858R, T790M)): 80%; remaining binding at 10 µM (FLT3(D835H)): 100%; remaining binding at 10 µM (MYLK): 36%; remaining binding at 10 µM (BTK): 100%; remaining binding at 10 µM (NEK10): 94%
